Source: paper PMC4830539, “Chemical Inhibition of Histone Deacetylases 1 and 2 Induces Fetal Hemoglobin through Activation of GATA2” (PLoS ONE, 2016)

Legend:
HbF = test system: HbF; design: method as in PMID 16888791, PMID 12393499, PMID 25808664, PMID 24606390, PMID 16939493; conditions: cell lines and primary cells; cited from earlier work
erythroid progenitors = test system: erythroid progenitors; design: method as in PMID 16939493; conditions: by suppressing the EPO-mediated survival of CD36highGYPAhigh cells; cited from earlier work
HbF protein = HbF protein by flow cytometry in BM cells (CS1, CS2); format: cell-based, human; conditions: 1 μM ACY-957 or 30 μM hydroxyurea
Experimental: CD34+ cells isolated from human bone marrow of healthy normal donors (Lonza, AllCells, or StemCell Technologies), referred to as BM cells throughout this work, were cultured using two distinct 2-phase culture systems. These systems have been described previously and are referred to as Culture System 1 (CS1) and Culture System 2 (CS2) throughout this work. CS1 expansion media is StemSpan SFEM (StemCell Technologies) supplemented with CC100 (StemCell Technologies), 100 U/mL penicillin and 100 μg/mL streptomycin. CC100 is a mix of Flt-3 ligand (FLT3LG), KIT ligand (KITLG), interleukin-3 (IL3), and interleukin-6 (IL6). CS1 differentiation media is StemSpan SFEM supplemented with 1 U/ml erythropoietin (EPO), 5 ng/mL IL3, 20 ng/mL KITLG, 2 μM dexamethasone, 1 μM beta-estradiol, 100 U/mL penicillin and 100 μg/mL streptomycin. CS2 expansion media is StemSpan SFEM supplemented with 1% glutamine, 40 μg/mL lipids (Sigma), 100 ng/mL KITLG, 10 ng/mL IL3, and 0.5 U/mL EPO. CS2 differentiation media is same as CS2 expansion media, except 3 U/mL EPO.
Flow cytometry was performed on a FC500 flow cytometer ([…]). Fetal hemoglobin protein was assayed using the Fetal Hemoglobin Test Kit (Life Technologies) according to manufacturer’s protocol. Samples were stained with FITC-conjugated mouse IgG1 anti-human HbF antibody (clone HbF-1, Life Technologies). Each sample was also stained with a FITC-conjugated mouse IgG1 isotype control antibody (clone X40, BD Biosciences) and used as a negative control. FETALtrol cells were used as positive controls (Trillium Diagnostics). TFRC and GYPA were detected on fresh cells by staining with 20 μL of PE-conjugated anti-human TFRC (clone M-A712, catalog 555537, BD Biosciences) and 0.5 μL of FITC- or APC-conjugated anti-human GYPA (clone GA-R2 (HIR2), catalog 559943 or 551336, BD Biosciences) in 200 μL PBS with 0.1% BSA for 40 min on ice. Forward and side scatter, or staining with 7AAD (catalog 559925, BD Biosciences), was used to identify viable cells.
To determine if the HBG mRNA induction observed in the presence of ACY-957 was associated with an increase in the HbF protein, CS1 and CS2 cells at day 5 were stained with a fluorescently conjugated anti-HbF antibody and evaluated by flow cytometry. HbF positive cells were increased by 2 to 3-fold upon treatment with ACY-957, which exceeded the response observed with hydroxyurea (Fig 2B and 2E).

| SMILES | HbF induction (HbF) | effect on erythroid progenitors (erythroid progenitors) | other results |
| --- | --- | --- | --- |
| O=C(CCCCCCC(=O)Nc1ccccc1)NO [vorinostat] | induce HbF |  |  |
| CCN(CC)Cc1ccc2cc(COC(=O)Nc3ccc(C(=O)NO)cc3)ccc2c1 [givinostat] | induce HbF |  |  |
| C/C=C1\NC(=O)[C@H]2CSSCC/C=C/[C@H](CC(=O)N[C@H](C(C)C)C(=O)N2)OC(=O)[C@H](C(C)C)NC1=O [romidepsin] | induce HbF | accumulation CD36^highGYPA^mid erythroid progenitors |  |
| Nc1ccccc1NC(=O)c1ccc(CNC(=O)OCc2cccnc2)cc1 [MS-275] | induce HbF |  |  |
| CC(/C=C/C(=O)NO)=C\[C@@H](C)C(=O)c1ccc(N(C)C)cc1 [trichostatinA] |  | accumulation CD36^highGYPA^mid erythroid progenitors |  |
| NC(=O)NO [hydroxyurea, reference compound] |  |  | HbF positive cells (HbF protein; CS1, day 5): 20%; MFI of HbF positive cells (HbF protein; CS1, day 5): 52; HbF positive cells (HbF protein; CS2, day 5): 39%; MFI of HbF positive cells (HbF protein; CS2, day 5): 12 |
